Test results: patent US9315498B2, “Arlethynyl derivatives” (Hoffmann-La Roche Inc., priority 2010, dated 2016)

Biological target: human mGlu5a receptor (Homo sapiens (Human), UniProt P41594)
Assay: Intracellular Ca2+ mobilization assay (mGlu5 PAM)
Assay type: cell-based
Conditions: for EC50: HEK-293 cells stably transfected with human mGlu5a, L-glutamate added at EC20 after pre-incubation with test compound, read-out: EC50 (nM) mGlu5PAM; for Emax: maximal response in % of the maximal stimulatory effect obtained with saturating concentrations of L-glutamate, read-out: Eff. (%)
Outline: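 HEK-293 cells stably expressing human mGlu5a at low level were loaded with Fluo-4AM and preincubated 10–30 min at 37 °C with 11-point half-log compound dilutions. L-glutamate was then added at its daily-determined EC20 (typically around 80 μM). Peak fluorescence minus basal, normalized to maximal glutamate effect, was fitted to give EC50, Hill slope and maximal response.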

Chain of human mGlu5a receptor (P41594 other isoform, or with tags, fused parts or gaps): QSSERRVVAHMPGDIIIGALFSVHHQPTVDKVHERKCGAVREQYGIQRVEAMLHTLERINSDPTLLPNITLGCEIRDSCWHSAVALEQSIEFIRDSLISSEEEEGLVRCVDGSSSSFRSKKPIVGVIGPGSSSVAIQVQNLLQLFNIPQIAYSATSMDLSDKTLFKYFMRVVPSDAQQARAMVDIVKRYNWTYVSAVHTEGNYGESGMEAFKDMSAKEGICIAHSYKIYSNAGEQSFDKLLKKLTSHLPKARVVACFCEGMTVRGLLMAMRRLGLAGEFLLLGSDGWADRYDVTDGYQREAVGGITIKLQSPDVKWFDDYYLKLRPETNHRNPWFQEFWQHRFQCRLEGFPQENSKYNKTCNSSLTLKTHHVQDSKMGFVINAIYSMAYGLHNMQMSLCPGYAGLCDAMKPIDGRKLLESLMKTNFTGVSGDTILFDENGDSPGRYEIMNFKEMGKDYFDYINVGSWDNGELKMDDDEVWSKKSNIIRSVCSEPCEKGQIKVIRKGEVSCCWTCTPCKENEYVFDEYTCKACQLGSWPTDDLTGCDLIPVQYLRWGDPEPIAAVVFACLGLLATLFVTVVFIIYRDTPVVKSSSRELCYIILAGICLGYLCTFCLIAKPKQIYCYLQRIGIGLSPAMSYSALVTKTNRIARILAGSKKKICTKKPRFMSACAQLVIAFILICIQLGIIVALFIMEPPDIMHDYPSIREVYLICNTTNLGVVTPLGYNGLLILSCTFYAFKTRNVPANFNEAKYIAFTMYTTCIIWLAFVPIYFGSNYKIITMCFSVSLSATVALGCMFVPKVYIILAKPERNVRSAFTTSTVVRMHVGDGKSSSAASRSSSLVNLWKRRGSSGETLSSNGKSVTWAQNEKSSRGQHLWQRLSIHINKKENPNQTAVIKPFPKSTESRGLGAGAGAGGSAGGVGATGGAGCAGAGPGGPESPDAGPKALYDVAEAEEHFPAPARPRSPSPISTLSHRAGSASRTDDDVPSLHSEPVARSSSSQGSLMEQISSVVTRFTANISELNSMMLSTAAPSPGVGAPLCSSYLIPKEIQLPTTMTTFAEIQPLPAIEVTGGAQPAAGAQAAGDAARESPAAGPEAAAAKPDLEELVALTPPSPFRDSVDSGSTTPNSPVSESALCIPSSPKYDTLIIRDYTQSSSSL

Structure (SMILES)	EC50 [nM]	Emax [%]
CC1(C)CCN(c2ccc(C#Cc3cncc(Cl)c3)cn2)C(=O)O1 [Example 75, 3-[5-(5-Chloro-pyridin-3-ylethynyl)-pyridin-2-yl]-6,6-dimethyl-[1,3]oxazinan-2-one]	27	87
CC1(C)CCN(c2ccc(C#Cc3cccc(Cl)c3)cn2)C(=O)O1 [Example 77, 3-[5-(3-Chloro-phenylethynyl)-pyridin-2-yl]-6,6-dimethyl-[1,3]oxazinan-2-one]	12	72
Cc1cccc(C#Cc2ccc(N3CCC(C)(C)OC3=O)nc2)c1 [Example 78, 6,6-Dimethyl-3-(5-m-tolylethynyl-pyridin-2-yl)-[1,3]oxazinan-2-one]	24	72
CC1(C)CCN(c2ccc(C#Cc3ccc(F)c(F)c3)cn2)C(=O)O1 [Example 80, 3-[5-(3,4-Difluoro-phenylethynyl)-pyridin-2-yl]-6,6-dimethyl-[1,3]oxazinan-2-one]	37	69
O=C1CC2(COC2)CN1c1ccc(C#Cc2ccccc2)cn1 [Example 82, 6-(5-Phenylethynyl-pyridin-2-yl)-2-oxa-6-aza-spiro[3.4]octan-7-one]	57	72
CN1C(=O)N(c2ccc(C#Cc3ccccc3)cn2)C2CCCCC21 (stereo not drawn) [Example 84, (3 aSR,7aRS)-(3aRS,7RS)-1-Methyl-3-(5-phenylethynyl-pyridin-2-yl)-octahydro-benzoimidazol-2-one]	11	64
CN1C(=O)N(c2ccc(C#Cc3cccnc3)cn2)C2CCCCC21 (stereo not drawn) [Example 85, (3aSR,7aRS)-(3aRS,7RS)-1-Methyl-3-(5-pyridin-3-ylethynyl-pyridin-2-yl)-octahydro-benzoimidazol-2-one]	27	49
CN1C(=O)N(c2ccc(C#Cc3cncc(F)c3)cn2)C2CCCCC21 (stereo not drawn) [Example 86, (3aSR,7aRS)-(3aRS,7RS)-1-[5-(5-Fluoro-pyridin-3-ylethynyl)-pyridin-2-yl]-3-methyl-octahydro-benzoimidazol-2-one]	32	52
CC1(C)CCN(c2ccc(C#Cc3ccccc3)cn2)C(=O)C1 [Example 87, 4,4-Dimethyl-5′-phenylethynyl-3,4,5,6-tetrahydro-[1,2′]bipyridinyl-2-one]	12	89
CC1(C)CCN(c2ccc(C#Cc3cccc(F)c3)cn2)C(=O)C1 [Example 88, 5′-(3-Fluoro-phenylethynyl)-4,4-dimethyl-3,4,5,6-tetrahydro-[1,2′]bipyridinyl-2-one]	19	110
CC1(C)CCN(c2ccc(C#Cc3cccc(Cl)c3)cn2)C(=O)C1 [Example 89, 5′-(3-Chloro-phenylethynyl)-4,4-dimethyl-3,4,5,6-tetrahydro-[1,2′]bipyridinyl-2-one]	25	78
CC1(C)CCN(c2ccc(C#Cc3cncc(Cl)c3)cn2)C(=O)C1 [Example 90, 5′-(5-Chloro-pyridin-3-ylethynyl)-4,4-dimethyl-3,4,5,6-tetrahydro-[1,2′]bipyridinyl-2-one]	66	90
CC1(C)CCN(c2ccc(C#Cc3ccc(F)cc3)cn2)C(=O)C1 [Example 91, 5′-(4-Fluoro-phenylethynyl)-4,4-dimethyl-3,4,5,6-tetrahydro-[1,2′]bipyridinyl-2-one]	67	89
CC1(C)CCN(c2ccc(C#Cc3cc(F)ccc3F)cn2)C(=O)C1 [Example 92, 5′-(2,5-Difluoro-phenylethynyl)-4,4-dimethyl-3,4,5,6-tetrahydro-[1,2′]bipyridinyl-2-one]	32	84
CC1(C)CCCN(c2ccc(C#Cc3ccccc3)cn2)C(=O)O1 [Example 93, 7,7-Dimethyl-3-(5-phenylethynyl-pyridin-2-yl)-[1,3]oxazepan-2-one]	36	104
O=C1OC2COCCC2N1c1ccc(C#Cc2ccccc2)cn1 (stereo not drawn) [Example 94, (3aSR,7aRS)-(3aRS,7RS)-1-(5-Phenylethynyl-pyridin-2-yl)-hexahydro-pyrano[4,3-d]oxazol-2-one]	60	84
CN1C(=O)N(c2ccc(C#Cc3ccccc3)cn2)CC12CC2 [Example 96, 4-Methyl-6-(5-phenylethynyl-pyridin-2-yl)-4,6-diaza-spiro[2.4]heptan-5-one]	35	98
CC1(C)CN(c2ccc(C#Cc3ccccc3)cn2)C1=O [Example 97, 3,3-Dimethyl-1-(5-phenylethynyl-pyridin-2-yl)-azetidin-2-one]	36	71
CCN1C(=O)N(c2ccc(C#Cc3ccccc3)cn2)C2CCCCC21 (stereo not drawn) [Example 99, (3aSR,7aRS)-(3aRS,7RS)-1-Ethyl-3-(5-phenylethynyl-pyridin-2-yl)-octahydro-benzoimidazol-2-one]	18	90
CCN1C(=O)N(c2ccc(C#Cc3cccnc3)cn2)C2CCCCC21 (stereo not drawn) [Example 100, (3aSR,7aRS)-(3aRS,7RS)-1-Ethyl-3-(5-pyridin-3-ylethynyl-pyridin-2-yl)-octahydro-benzoimidazol-2-one]		64

Structure (SMILES)	EC50 [nM]	Emax [%]
CC(C)N1C(=O)N(c2ccc(C#Cc3ccccc3)cn2)C2CCCCC21 (stereo not drawn) [Example 101, (3aSR,7aRS)-(3aRS,7RS)-1-Isopropyl-3-(5-phenylethynyl-pyridin-2-yl)-octahydro-benzoimidazol-2-one]	39	77
Cc1cc(C#Cc2cccc(F)c2)cnc1N1CC(C)(C)N(C)C1=O [Example 108, 1-[5-(3-Fluoro-phenylethynyl)-3-methyl-pyridin-2-yl]-3,4,4-trimethyl-imidazolidin-2-one]	102	115
CN1C(=O)N(c2ncc(C#Cc3ccc(F)cc3)cc2F)CC1(C)C [Example 110]	96	117
CN1C(=O)N(c2ncc(C#Cc3cccc(F)c3)cc2F)CC1(C)C [Example 111]	32	107
CN1C(=O)N(c2ccc(C#Cc3ccc(F)cc3)cn2)CC12CC2 [Example 112, 6-[5-(4-Fluoro-phenylethynyl)-pyridin-2-yl]-4-methyl-4,6-diaza-spiro[2.4]heptan-5-one]	80	89
CN1C(=O)N(c2ccc(C#Cc3cccc(F)c3)cn2)CC12CC2 [Example 113, 6-[5-(3-Fluoro-phenylethynyl)-pyridin-2-yl]-4-methyl-4,6-diaza-spiro[2.4]heptan-5-one]	51	75
CC1(C)CC(=O)N(c2ncc(C#Cc3ccccc3)cn2)C1 [Example 115, 4,4-Dimethyl-1-(5-phenylethynyl-pyrimidin-2-yl)-pyrrolidin-2-one]	13	109
CC1(C)CCC(=O)N(c2ncc(C#Cc3ccccc3)cn2)C1 [Example 116, 5,5-Dimethyl-1-(5-phenylethynyl-pyrimidin-2-yl)-piperidin-2-one]	41	101
O=C1CC2(CCCC2)CN1c1ncc(C#Cc2ccccc2)cn1 [Example 117, 2-(5-Phenylethynyl-pyrimidin-2-yl)-2-aza-spiro[4.4]nonan-3-one]	44	84
CC1(C)CC(=O)N(c2ncc(C#Cc3cccc(F)c3)cn2)C1 [Example 118, 1-[5-(3-Fluoro-phenylethynyl)-pyrimidin-2-yl]-4,4-dimethyl-pyrrolidin-2-one]	13	78
CC1(C)CC(=O)N(c2ncc(C#Cc3cccc(Cl)c3)cn2)C1 [Example 119, 1-[5-(3-Chloro-phenylethynyl)-pyrimidin-2-yl]-4,4-dimethyl-pyrrolidin-2-one]	11	26
CC1(C)CC(=O)N(c2ncc(C#Cc3ccc(F)cc3)cn2)C1 [Example 120, 1-[5-(4-Fluoro-phenylethynyl)-pyrimidin-2-yl]-4,4-dimethyl-pyrrolidin-2-one]	92	81
CC1(C)CC(=O)N(c2ncc(C#Cc3cc(F)ccc3F)cn2)C1 [Example 121, 1-[5-(2,5-Difluoro-phenylethynyl)-pyrimidin-2-yl]-4,4-dimethyl-pyrrolidin-2-one]	41	70
CN1C(=O)N(c2ncc(C#Cc3ccccc3)cn2)CC1(C)C [Example 122, 3,4,4-Trimethyl-1-(5-phenylethynyl-pyrimidin-2-yl)-imidazolidin-2-one]	11	36
CN1C(=O)N(c2ncc(C#Cc3cccc(F)c3)cn2)CC1(C)C [Example 123, 1-[5-(3-Fluoro-phenylethynyl)-pyrimidin-2-yl]-3,4,4-trimethyl-imidazolidin-2-one]	18	30
CN1C(=O)N(c2ncc(C#Cc3cc(F)ccc3F)cn2)CC1(C)C [Example 124, 1-[5-(2,5-Difluoro-phenylethynyl)-pyrimidin-2-yl]-3,4,4-trimethyl-imidazolidin-2-one]	7	43
CN1C(=O)N(c2ncc(C#Cc3ccc(F)cc3)cn2)CC1(C)C [Example 125, 1-[5-(4-Fluoro-phenylethynyl)-pyrimidin-2-yl]-3,4,4-trimethyl-imidazolidin-2-one]	13	44
CN1C(=O)N(c2ncc(C#Cc3ccc(F)c(F)c3)cn2)CC1(C)C [Example 126, 1-[5-(3,4-Difluoro-phenylethynyl)-pyrimidin-2-yl]-3,4,4-trimethyl-imidazolidin-2-one]	23	36
CC1(C)CCN(c2ncc(C#Cc3ccccc3)cn2)C(=O)C1 [Example 134, 4,4-Dimethyl-1-(5-phenylethynyl-pyrimidin-2-yl)-piperidin-2-one]	42	90
